Results reported in PubChem BioAssay AID248 (DTP/NCI, 2004).
Values joined by “and” are separate entries in the source; they are usually repeats but may differ in a detail not shown here. Equal values may be shown once. Toxic doses and inconclusive results are not listed.

System: L1210 leukemia ip in BDF1 mice, survival T/C
Assay: NCI In Vivo Anticancer Drug Screen. Data for tumor model L1210 Leukemia (intraperitoneal) in B6D2F1 (BDF1) mice
Settings: endpoint: mean survival time, higher = longer survival
Outline: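 Each compound was tested against a transplantable tumor grown in mice. The endpoint was survival, with treated animals benchmarked against vehicle controls as a simple ratio.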

[1] = dose: 100.0 mg/kg/injection, schedule: Q04DX003 (ip), vehicle: saline with Tween-80
[2] = dose: 200.0 mg/kg/injection, schedule: Q04DX003 (ip), vehicle: saline with Tween-80
[3] = dose: 400.0 mg/kg/injection, schedule: Q04DX003 (ip), vehicle: saline with Tween-80
[4] = dose: 50.0 mg/kg/injection, schedule: Q01DX009 (ip), vehicle: Klucel (hydroxypropylcellulose) (HPC)
[5] = dose: 100.0 mg/kg/injection, schedule: Q04DX003 (ip), vehicle: Klucel (hydroxypropylcellulose) (HPC)
[6] = dose: 200.0 mg/kg/injection, schedule: Q04DX003 (ip), vehicle: Klucel (hydroxypropylcellulose) (HPC)
[7] = dose: 100.0 mg/kg/injection, schedule: Q01DX001 (ip), vehicle: Klucel (hydroxypropylcellulose) (HPC)
[8] = dose: 400.0 mg/kg/injection, schedule: Q04DX003 (ip), vehicle: Klucel (hydroxypropylcellulose) (HPC)
[9] = dose: 100.0 mg/kg/injection, schedule: Q04DX002 (ip), vehicle: Klucel (hydroxypropylcellulose) (HPC)
[10] = dose: 200.0 mg/kg/injection, schedule: Q04DX002 (ip), vehicle: Klucel (hydroxypropylcellulose) (HPC)
[11] = dose: 400.0 mg/kg/injection, schedule: Q04DX002 (ip), vehicle: Klucel (hydroxypropylcellulose) (HPC)
[12] = dose: 100.0 mg/kg/injection, schedule: Q01DX001 (ip), vehicle: saline
[13] = dose: 200.0 mg/kg/injection, schedule: Q01DX001 (ip), vehicle: saline
[14] = dose: 400.0 mg/kg/injection, schedule: Q01DX001 (ip), vehicle: saline
[15] = dose: 100.0 mg/kg/injection, schedule: Q01DX009 (ip), vehicle: Klucel (hydroxypropylcellulose) (HPC)

CCN(CC)CCN1C(=O)C2CCCCC2C1=O (configuration not stated)
T/C [1]: 101 % of control | T/C [2]: 101 % of control | T/C [3]: 97 % of control

C#CCSP(=O)(O)O
T/C (dose: 25.0 mg/kg/injection, schedule: Q01DX009 (ip), vehicle: saline with Tween-80): 103 % of control | T/C (dose: 50.0 mg/kg/injection, schedule: Q01DX009 (ip), vehicle: saline with Tween-80): 103 % of control

O=C(CN1CCCCC1)c1ccc(/C=C/c2ccc(Cl)cc2)cc1
T/C (dose: 12.5 mg/kg/injection, schedule: Q01DX009 (ip), vehicle: Klucel (hydroxypropylcellulose) (HPC)): 93 % of control | T/C (dose: 25.0 mg/kg/injection, schedule: Q01DX009 (ip), vehicle: Klucel (hydroxypropylcellulose) (HPC)): 97 % of control | T/C [4]: 87 % of control and 88 % of control | T/C [5]: 88 % of control | T/C [6]: 88 % of control

O=S1(=O)CCCC1C(Cl)c1ccccc1 (configuration not stated)
T/C (dose: 50.0 mg/kg/injection, schedule: Q01DX001 (ip), vehicle: Klucel (hydroxypropylcellulose) (HPC)): 92 % of control | T/C [7]: 97 % of control

CCCCCCCCCCCCCCCCS(=O)(=O)N/N=C(/c1ccc(N)cc1Cl)N1CCCCC1
T/C [5]: 86 % of control | T/C [6]: 94 % of control | T/C [8]: 91 % of control

COC(=O)C(=O)CC(=O)c1ccc(Cl)cc1
T/C [9]: 100 % of control | T/C [10]: 106 % of control | T/C [11]: 95 % of control

O=C1c2c(O)cccc2C(Br)c2cccc(O)c21
T/C (dose: 100.0 mg/kg/injection, schedule: Q01DX001 (ip), vehicle: water): 108 % of control | T/C (dose: 100.0 mg/kg/injection, schedule: Q01DX009 (ip), vehicle: water): 103 % of control | T/C (dose: 200.0 mg/kg/injection, schedule: Q01DX001 (ip), vehicle: water): 108 % of control | T/C (dose: 200.0 mg/kg/injection, schedule: Q01DX009 (ip), vehicle: water): 100 % of control | T/C (dose: 300.0 mg/kg/injection, schedule: Q01DX001 (ip), vehicle: water): 104 % of control | T/C (dose: 400.0 mg/kg/injection, schedule: Q01DX009 (ip), vehicle: water): 90 % of control

Cc1ccc(-c2nc(C#N)c(C#N)nc2-c2ccc(C)cc2)cc1
T/C [12]: 98 % of control | T/C [13]: 101 % of control | T/C [14]: 101 % of control

O=C(O)/C(=C\c1cc2c(cc1[N+](=O)[O-])OCO2)c1cc2c(cc1Br)OCO2
T/C (dose: 50.0 mg/kg/injection, schedule: Q01DX001 (ip), vehicle: carboxymethylcellulose (CMC)): 97 % of control | T/C (dose: 100.0 mg/kg/injection, schedule: Q01DX001 (ip), vehicle: carboxymethylcellulose (CMC)): 100 % of control | T/C (dose: 200.0 mg/kg/injection, schedule: Q01DX001 (ip), vehicle: carboxymethylcellulose (CMC)): 103 % of control | T/C (dose: 400.0 mg/kg/injection, schedule: Q01DX001 (ip), vehicle: carboxymethylcellulose (CMC)): 92 % of control

COc1ccc2c3c1OC1c4[nH]ncc4CC4C(C2)N(C)CCC314 (configuration not stated)
T/C [5]: 104 % of control | T/C [6]: 93 % of control | T/C [8]: 106 % of control

C(=NC12CC3CC(CC(C3)C1)C2)c1ccccc1
T/C (dose: 25.0 mg/kg/injection, schedule: Q01DX009 (ip), vehicle: saline): 106 % of control | T/C (dose: 50.0 mg/kg/injection, schedule: Q01DX009 (ip), vehicle: saline): 97 % of control | T/C (dose: 200.0 mg/kg/injection, schedule: Q01DX009 (ip), vehicle: saline): 100 % of control | T/C (dose: 400.0 mg/kg/injection, schedule: Q01DX009 (ip), vehicle: saline): 104 % of control

CCCN(C)/N=N/c1[nH]ncc1C(N)=O
T/C (dose: 66.0 mg/kg/injection, schedule: Q01DX009 (ip), vehicle: saline with Tween-80): 178 % of control | T/C (dose: 100.0 mg/kg/injection, schedule: Q01DX001 (ip), vehicle: saline with Tween-80): 113 % of control | T/C (dose: 100.0 mg/kg/injection, schedule: Q01DX009 (ip), vehicle: saline with Tween-80): 188 % of control | T/C (dose: 200.0 mg/kg/injection, schedule: Q01DX001 (ip), vehicle: saline with Tween-80): 115 % of control | T/C (dose: 200.0 mg/kg/injection, schedule: Q01DX009 (ip), vehicle: saline with Tween-80): 120 % of control | T/C [2]: 116 % of control | T/C (dose: 400.0 mg/kg/injection, schedule: Q01DX001 (ip), vehicle: saline with Tween-80): 109 % of control | T/C [3]: 94 % of control

Cc1cccc(NC(=O)C(Cl)(Cl)Cl)c1
T/C [9]: 109 % of control | T/C [10]: 98 % of control | T/C [11]: 98 % of control

CC1C(C)(C)P(=O)(NCCOP2(=O)C(C)(C)C(C)C2(C)C)C1(C)C (configuration not stated)
T/C (dose: 100.0 mg/kg/injection, schedule: Q04DX003 (ip), vehicle: saline): 100 % of control | T/C (dose: 200.0 mg/kg/injection, schedule: Q04DX003 (ip), vehicle: saline): 92 % of control | T/C (dose: 400.0 mg/kg/injection, schedule: Q04DX003 (ip), vehicle: saline): 96 % of control

C#CCCCCCC#CCCCCCC#CCCCCCC#C
T/C (dose: 100.0 mg/kg/injection, schedule: Q04DX003 (ip), vehicle: acetone): 94 % of control | T/C (dose: 200.0 mg/kg/injection, schedule: Q04DX003 (ip), vehicle: acetone): 95 % of control

CC/C(C)=C\CC/C(C)=C\COc1ccccc1C
T/C (dose: 100.0 mg/kg/injection, schedule: Q04DX002 (ip), vehicle: saline with Tween-80): 91 % of control | T/C (dose: 200.0 mg/kg/injection, schedule: Q04DX002 (ip), vehicle: saline with Tween-80): 94 % of control | T/C (dose: 400.0 mg/kg/injection, schedule: Q04DX002 (ip), vehicle: saline with Tween-80): 89 % of control

N#Cc1ccccc1CCc1ccccc1
T/C (dose: 50.0 mg/kg/injection, schedule: Q01DX001 (ip), vehicle: saline): 106 % of control | T/C [12]: 102 % of control | T/C [13]: 106 % of control | T/C [14]: 98 % of control

CC(C)(C)C1COP(=O)(OCc2ccccc2)OC1 (configuration not stated)
T/C (dose: 100.0 mg/kg/injection, schedule: Q04DX003 (ip), vehicle: other): 92 % of control | T/C (dose: 200.0 mg/kg/injection, schedule: Q04DX003 (ip), vehicle: other): 91 % of control

CC1=CC(C)C(=O)N(C)C(C)=C1 (configuration not stated)
T/C (dose: 75.0 mg/kg/injection, schedule: Q01DX001 (ip), vehicle: carboxymethylcellulose (CMC)): 97 % of control | T/C (dose: 150.0 mg/kg/injection, schedule: Q01DX001 (ip), vehicle: carboxymethylcellulose (CMC)): 91 % of control | T/C (dose: 300.0 mg/kg/injection, schedule: Q01DX001 (ip), vehicle: carboxymethylcellulose (CMC)): 92 % of control

CCCCN(C=O)c1ccccc1
T/C [15]: 108 % of control | T/C [5]: 97 % of control | T/C (dose: 200.0 mg/kg/injection, schedule: Q01DX009 (ip), vehicle: Klucel (hydroxypropylcellulose) (HPC)): 104 % of control | T/C [6]: 103 % of control | T/C (dose: 400.0 mg/kg/injection, schedule: Q01DX009 (ip), vehicle: Klucel (hydroxypropylcellulose) (HPC)): 87 % of control | T/C [8]: 97 % of control

O=[N+]([O-])c1ccc(N2N=NC3CC/C(=C\c4cccc([N+](=O)[O-])c4)C32N2CCOCC2)cc1 (configuration not stated)
T/C (dose: 25.0 mg/kg/injection, schedule: Q04DX002 (ip), vehicle: Klucel (hydroxypropylcellulose) (HPC)): 104 % of control | T/C (dose: 50.0 mg/kg/injection, schedule: Q04DX002 (ip), vehicle: Klucel (hydroxypropylcellulose) (HPC)): 101 % of control | T/C [9]: 88 % of control

CN=C(N)N
T/C [1]: 102 % of control | T/C [2]: 101 % of control | T/C [3]: 103 % of control

Nc1nc(N)c(CCCCc2ccccc2)c(N)n1
T/C [4]: 87 % of control | T/C (dose: 50.0 mg/kg/injection, schedule: Q01DX Z (ip), vehicle: carboxymethylcellulose (CMC)): 95 % of control | T/C [15]: 95 % of control

O=S(=O)(F)c1cc(Cl)c(S)cc1Cl
T/C (dose: 25.0 mg/kg/injection, schedule: Q04DX003 (ip), vehicle: Klucel (hydroxypropylcellulose) (HPC)): 96 % of control | T/C (dose: 50.0 mg/kg/injection, schedule: Q04DX003 (ip), vehicle: Klucel (hydroxypropylcellulose) (HPC)): 96 % of control | T/C [5]: 98 % of control and 106 % of control

CN(C)c1ccc(C(=O)CCCN2CCC(O)(c3ccc(Cl)cc3)CC2)cc1
T/C [7]: 95 % of control | T/C (dose: 200.0 mg/kg/injection, schedule: Q01DX001 (ip), vehicle: Klucel (hydroxypropylcellulose) (HPC)): 94 % of control | T/C (dose: 400.0 mg/kg/injection, schedule: Q01DX001 (ip), vehicle: Klucel (hydroxypropylcellulose) (HPC)): 90 % of control
